According to patent US5183821A, “Method for treating leukemias using N-(2-dimethylaminoethyl)-3-amino-1,8-naphthalimide for treating leukemias and solid tumors” (priority 1991, dated 1993):
Several values for one entry are separate records, joined by “and”; a condition that tells them apart may be missing. Identical values can stand only once. Entries after “also recorded” stand apart in the source; their conditions may differ.

How the values were obtained:
[1] = test system: L-1210 Lymphoid leukemia; experiment: Experiment 9: L-1210 i.p., 10^5 cells, saline with Tween-80, male; format: in vivo, CD2F1 (CDF)
Source text: (§1) Tumor: L-1210 Lymphoid leukemia
(§2) Inoculum Site: Intraperitoneal
(§3) Vehicle: Saline with Tween-80
(§4) Treatment schedule (relative to tumor inoculation day): daily on days 1-9
(§5) Day of evaluation (relative to tumor inoculation day): 30
Parameter: Mean survival time (MST) in days
(§6) NCI minimal activity criteria: Percent T/C≥125
(§7) Percent T/C: Ratio of test (T) evaluation to control (C) evaluation expressed as a percentage

[2] = test system: canine whole blood; experiment: Hemolytic potential testing, canine whole blood; details: 50 mg/ml
Description: Therefore, a concentration of 12.5 mg/ml was used in the dog studies.

[3] = test system: CD2 F1 mice; experiment: Single dose (X1) mouse range-finding and lethality study; format: in vivo
Description: (§8) A preclinical toxicology study of benzisoquinolinedione (NSC-308847) was done at Springborn Institute for Bioresearch, Inc. using CD2 F1 mice, Fischer 344 rats and beagle dogs. Animals were injected intravenously on a single dose (X1) or five daily dose (X5) regimen. Bulk drug was titrated with 0.5N HCl to form a salt solution of benzisoquinolinedione at a pH of 5.0-6.5. Sterile 0.9% saline was used for diluting the dosing solutions and was used for the vehicle control animals.
(§9) All mortality and toxic signs occurred on day 1 in both the X1 range-finding and lethality studies.
(§10) Defined Doses for the Single Dose Mouse Lethality

[4] = as above; format: in vivo, CD2 F1 mice; details: mouse, in vivo, iv
Description: as §8, §9, §10

[5] = test system: L-1210 Lymphoid leukemia; experiment: Experiment 7: L-1210 i.p., 10^5 cells, acid diluted with saline, male; format: in vivo, Mouse CD2 F1 (CDF1)
Source text: (§11) Host: Mouse CD2 F1 (CDF1)
as §1, §2
(§12) Vehicle: Acid diluted with saline
as §4, §5
(§13) Parameter: Median survival time (MST) in days
as §6, §7

[6] = test system: beagle dogs; experiment: Single dose dog toxicity study; format: in vivo; details: for Mortality / lethality: single; for toxicity summary, dogs: single dose i.v.
Description: Preclinical toxicity studies of BIDA were completed in CD2F1 Mice, Fischer 344 rats and beagle dogs (4). The animals were injected IV with a single bolus or daily for five days.
as §8
The following summarizes the major organ toxicities resulting from IV administration of benzisoquinolinedione to dogs.

[7] = test system: L-1210 Lymphoid leukemia; experiment: Experiment 3: L-1210 i.p., 10^5 cells, saline with Tween-80, male; format: in vivo, Mouse CD2 F1 (CDF1)
Source text: as §11, §1
(§14) Inoculum Site: intraperitoneal
as §3
Treatment schedule (relative to tumor inoculation day) daily on days 1-9
as §5
Parameter: Mean survival time (MST) in days.
as §6, §7

[8] = test system: L-1210 Lymphoid leukemia; experiment: Experiment 1: L-1210 i.p., 10^4 cells, acid diluted with saline, male; format: in vivo, Mouse CD2 F1 (CDF1)
Source text: as §11, §1, §14
Vehicle: Acid Diluted with saline
as §4, §5, §13, §6, §7

[9] = test system: L-1210 Lymphoid leukemia; experiment: Experiment 6: L-1210 i.p., 10^4 cells, saline with Tween-80, male; format: in vivo, Mouse CD2 F1 (CDF1)
Source text: as §11, §1, §2, §3, §4, §5, §13, §6, §7

[10] = parameters: species or system human
Source text: Further studies were done using heparinized plasma (two additional human donors) and with EDTA plasma (one donor). […] Human EDTA plasma was compatible with drug at a 1:32 drug/plasma ratio.

[11] = test system: B16 Melanocarcinoma; experiment: Experiment 20: B16 i.p., acid diluted with saline, female; format: in vivo, Mouse B6 C3 F1
Source text: Tumor: B16 Melanocarcinoma
as §2
Tissue: Homogenate (or brei), tumor
as §12, §4
Day of evaluation (relative to tumor inoculation day): 60
as §13, §6, §7

[12] = 18.4 mg/kg, three dogs, days 2, 3 and/or 4

For `CN(C)CCN1C(=O)c2cccc3cc(N)cc(c23)C1=O` [Example 9, 1H-Benz[de]isoquinoline-1,3(2H)-dione, 5-amino-2-[2-(dimethylamino)ethyl]], the “Mean survival time (MST)” value ([1]; 1.00 mg/kg i.p.) was 9.0 days, the “Percent T/C” value ([1]; 1.00 mg/kg i.p.) was 104% and the “Mean survival time (MST)” value ([1]; 2.00 mg/kg i.p.) was 8.7 days. For the same compound, the “Percent T/C” value ([1]; 2.00 mg/kg i.p.) was 101%, the “Mean survival time (MST)” value ([1]; 4.00 mg/kg i.p.) was 9.3 days and the “Percent T/C” value ([1]; 4.00 mg/kg i.p.) was 108%. The “Mean survival time (MST)” value ([1]; 8.00 mg/kg i.p.) was 11.7 days, the “Percent T/C” value ([1]; 8.00 mg/kg i.p.) was 136% and the “Mean survival time (MST)” value ([1]; 16.00 mg/kg i.p.) was 17.0 days. For the same compound, the “Percent T/C” value ([1]; 16.00 mg/kg i.p.) was 197%, the “Mean survival time (MST)” value ([1]; 32.00 mg/kg i.p.) was 7.7 days and the “Percent T/C” value ([1]; 32.00 mg/kg i.p.) was 89%. For the same compound, the hemolysis ([2]; 1:1 drug to blood) was “hemolysis”, the hemolysis ([2]; 1:2) was “Slight hemolysis” and the hemolysis ([2]; 1:4) was “none”. For the same compound, the “body weight, mice” value ([3]; X1) was “Only slight weight loss”, the “time of deaths, mice” value ([3]; X1) was “within a few minutes after dosing” and the “toxic signs, mice” value ([3]; X1, listed as benzisoquinolinedione) was “labored breathing, struggling and exophthalmus; also recorded: loss of locomotor ability, decreased activity and rough hair coats; also recorded: All surviving animals were normal within a few hours”. The LD50 ([3]; combined sexes) was 207.3 mg/m^2, the “Slope (lethality)” value ([3]; combined sexes) was 23.1 and the LD10 ([3]; female) was 62.2 mg/kg. For the same compound, the LD50 ([3]; female) was 214.2 mg/m^2, the “Slope (lethality)” value ([3]; female) was 21.2 and the LD50 ([3]; male) was 201.3 mg/m^2. The “Slope (lethality)” value ([3]; male) was 26.0, the LD50 ([4]; combined sexes) was 69.1 mg/kg and the LD50 ([4]; female) was 71.4 mg/kg. The LD50 ([4]; male) was 67.1 mg/kg, the “Median survival time (MST)” value ([5]; 1.00 mg/kg i.p.) was 10.4 days and the “Percent T/C” value ([5]; 1.00 mg/kg i.p.) was 99%. The “Median survival time (MST)” value ([5]; 2.00 mg/kg i.p.) was 10.2 days, the “Percent T/C” value ([5]; 2.00 mg/kg i.p.) was 97% and the “Median survival time (MST)” value ([5]; 4.00 mg/kg i.p.) was 10.4 days. The “Percent T/C” value ([5]; 4.00 mg/kg i.p.) was 99%, the “Median survival time (MST)” value ([5]; 8.00 mg/kg i.p.) was 12.4 days and the “Percent T/C” value ([5]; 8.00 mg/kg i.p.) was 118%. The “Median survival time (MST)” value ([5]; 16.00 mg/kg i.p.) was 11.8 days, the “Percent T/C” value ([5]; 16.00 mg/kg i.p.) was 112% and the “Median survival time (MST)” value ([5]; 32.00 mg/kg i.p.) was 8.0 days. For the same compound, the “gross or microscopic lesions” value ([6]; 0.92 mg/kg) was “No drug-related gross or microscopic lesions were found”, the Mortality / lethality ([6]; 0.92 mg/kg (1/10MELD10)) was 0/4 and the SGPT ([6]; 0.92 mg/kg, days 2 and 4) was 27-40 I.U./L. For the same compound, the BUN ([6]; 0.92 mg/kg, one dog, day 4) was 26 mg/dL, the Creatinine ([6]; 0.92 mg/kg, one dog, day 4) was 1.29 mg/dL and the “gross or microscopic lesions” value ([6]; 9.2 mg/kg) was “No drug-related gross or microscopic lesions were found”. The Mortality / lethality ([6]; 9.2 mg/kg (MELD10)) was 0/4, the Creatinine ([6]; 9.2 mg/kg, day 4) was 1.31 mg/dL and the BUN ([6]; 9.2 mg/kg, one dog, days 2 and 4) was 22 to 23 mg/dL. For the same compound, the SGPT ([6]; 9.2 mg/kg, three dogs, days 2 and/or 4) was 32-43 I.U./L, the Nervous system signs ([6]; 18.4 mg/kg) was “vocalizations, struggling against restraint, excessive salivation, hyperextension of all limbs and/or labored breathing” and the Mortality / lethality ([6]; 18.4 mg/kg (2XMELD10), listed as BIDA) was “Neither the single injection of 2×MELD10 or the daily×5 injection of the 3×MELD10 caused lethality”. The Mortality / lethality ([6]; 18.4 mg/kg (2XMELD10), listed as benzisoquinolinedione) was “no deaths and 0/4”, the BUN ([6]; 18.4 mg/kg, all dogs, day 2) was 23 to 32 mg/dL and the “leukopenia (leukocyte count)” value ([6]; 18.4 mg/kg, days 3, 8 or 4) was 3.8-5.4 ×10^3 /cmm. For the same compound, the “gross or microscopic lesions” value ([6]; 18.4 mg/kg, listed as benzisoquinolinedione) was “No gross or microscopic lesions were seen; also recorded: No drug-related gross or microscopic lesions were found”, the SGOT [6, 12] was 43-70 I.U./L and the SGPT [6, 12] was 40-57 I.U./L. For the same compound, the BUN ([6]; 18.4 mg/kg, two long-term dogs, days 22 and 29 or 28) was 23 to 29 mg/dL, the “toxicity summary, dogs” value ([6]; listed as BIDA) was “Hematopoletic, renal and hepatic toxicity; also recorded: Signs indicating pain and/or neurotoxicity” and the “toxicity summary, dogs” value ([6]; listed as benzisoquinolinedione) was “reversible toxicity to the hematopoietic system, kidney and liver; also recorded: Signs indicative of pain and/or neurotoxicity; also recorded: No drug-related gross or microscopic lesions”. The “Mean survival time (MST)” value ([7]; 1.00 mg/kg i.p.) was 7.5 days, the “Percent T/C” value ([7]; 1.00 mg/kg i.p.) was 92% and the “Mean survival time (MST)” value ([7]; 2.00 mg/kg i.p.) was 8.3 days. For the same compound, the “Percent T/C” value ([7]; 2.00 mg/kg i.p.) was 102%, the “Mean survival time (MST)” value ([7]; 4.00 mg/kg i.p.) was 8.7 days and the “Percent T/C” value ([7]; 4.00 mg/kg i.p.) was 107%. The “Mean survival time (MST)” value ([7]; 8.00 mg/kg i.p.) was 10.2 days, the “Percent T/C” value ([7]; 8.00 mg/kg i.p.) was 125% and the “Mean survival time (MST)” value ([7]; 16.00 mg/kg i.p.) was 14.2 days. For the same compound, the “Percent T/C” value ([7]; 16.00 mg/kg i.p.) was 175%, the “Mean survival time (MST)” value ([7]; 32.00 mg/kg i.p.) was 7.8 days and the “Percent T/C” value ([7]; 32.00 mg/kg i.p.) was 96%. The “Median survival time (MST)” value ([8]; 2.00 mg/kg i.p.) was 9.9 days, the “Percent T/C” value ([8]; 2.00 mg/kg i.p.) was 107% and the “Median survival time (MST)” value ([8]; 4.00 mg/kg i.p.) was 10.4 days. For the same compound, the “Percent T/C” value ([8]; 4.00 mg/kg i.p.) was 113%, the “Median survival time (MST)” value ([8]; 8.00 mg/kg i.p.) was 12.3 days and the “Percent T/C” value ([8]; 8.00 mg/kg i.p.) was 133%. For the same compound, the “Median survival time (MST)” value ([8]; 16.00 mg/kg i.p.) was 20.0 days, the “Percent T/C” value ([8]; 16.00 mg/kg i.p.) was 217% and the “Median survival time (MST)” value ([8]; 32.00 mg/kg i.p.) was 8.8 days. For the same compound, the “Percent T/C” value ([8]; 32.00 mg/kg i.p.) was 95%, the “Median survival time (MST)” value ([9]; 2.00 mg/kg i.p.) was 9.7 days and the “Percent T/C” value ([9]; 2.00 mg/kg i.p.) was 105%. For the same compound, the “Median survival time (MST)” value ([9]; 4.00 mg/kg i.p.) was 10.7 days, the “Percent T/C” value ([9]; 4.00 mg/kg i.p.) was 116% and the “Median survival time (MST)” value ([9]; 8.00 mg/kg i.p.) was 12.0 days. The “Percent T/C” value ([9]; 8.00 mg/kg i.p.) was 130%, the “Median survival time (MST)” value ([9]; 16.00 mg/kg i.p.) was 19.0 days and the “Percent T/C” value ([9]; 16.00 mg/kg i.p.) was 200%. The “Median survival time (MST)” value ([9]; 32.00 mg/kg i.p.) was 8.3 days, the “Percent T/C” value ([9]; 32.00 mg/kg i.p.) was 90% and the blood compatibility [10] was “compatible”. The “Median survival time (MST)” value ([11]; 0.00 mg/kg [sic] i.p.) was 18.3 days, the “Percent T/C” value ([11]; 0.00 mg/kg [sic] i.p.) was 97% and the “Median survival time (MST)” value ([11]; 2.00 mg/kg i.p.) was 18.3 days. For the same compound, the “Percent T/C” value ([11]; 2.00 mg/kg i.p.) was 97%, the “Median survival time (MST)” value ([11]; 4.00 mg/kg i.p.) was 20.0 days and the “Percent T/C” value ([11]; 4.00 mg/kg i.p.) was 106%. For the same compound, the “Median survival time (MST)” value ([11]; 8.00 mg/kg i.p.) was 20.9 days, the “Percent T/C” value ([11]; 8.00 mg/kg i.p.) was 111% and the “Median survival time (MST)” value ([11]; 16.00 mg/kg i.p.) was 20.8 days. For the same compound, the “Percent T/C” value ([11]; 16.00 mg/kg i.p.) was 110% and the “Median survival time (MST)” value ([11]; 32.00 mg/kg i.p.) was 6.7 days.
